This is an account of results in patent publication US20110239332A1, “PROPAGATION OF SWITCHGRASS AND MISCANTHUS” (priority 2008, published 2011).

The structures appear in SMILES notation.

Assay [1] has as its system Miscanthus shoots. In words: In vitro shoot multiplication of Miscanthus in culture media. The format is cell-based, Miscanthus × giganteus. Particulars: high TDZ (1.65 mg/L) compared with about 0.25 mg/L TDZ, media at 31° C. Here is the method: In propagating Miscanthus stem nodes in culture media, Nielsen used high amounts of Thidiazuron (TDZ) (1.65 mg/L), which is a cost limiting hormone additive in shoot multiplication growth media (Nielsen et. al. 1993; Nielsen et. al. 1995).
Stems of actively growing Miscanthus × giganteus having dormant nodes were harvested and sterilized using 1.5% sodium hypochlorite (25% bleach) solution followed by three rinses using sterile water. Stem segments comprising nodes were cut to 3 cm long and then cut longitudinally down the center of the each stem. The prepared stem portions were then placed under growth conditions of 50 μE of light and a 16 h day. The temperature was 31° C. Stem segments were grown in […] Petri plates for solid culture, however any suitable sterile container can be used for solid or liquid culture. Time between sub-culturing was 14-21 days. Shoots were cut to 3-4 cm in length when sub-culturing.
The media used for the above-described growth conditions comprised MS medium plus vitamins (full strength) (Phytotechnologies™ Product ID-M519), 30 g/L sucrose (87.7 mM), […] MgCl2 (750 mg/L of MgCl2.6H2O), pH 5.6 for semi-solid media, […], and 6 g/L agar. The following hormones were added after autoclaving of the media. […]

Assay [2] relates to switchgrass shoots. As to the kind of experiment: In vitro shoot multiplication of switchgrass in culture media. The assay is classed as cell-based, Panicum virgatum L. On the procedure:
A drawback of the use of known propagation conditions is a limited shoot multiplication rate. […] Alexandrova described how to multiply up to 500 shoots from one plant in 8 weeks (12 weeks to plant) at 29° C. and used only one plant hormone Benzylaminopurine (BAP) for multiplication of switchgrass shoots (Alexandrova et al. 1996). However, it has been discovered that 31° C. is a preferable temperature for multiplication of switchgrass shoots. It has also been discovered that liquid medium is preferable for increased multiplication. Applicants optimized multiplication of Switchgrass shoots with a combination of several plant hormones Benzylaminopurine+Naphthaleneacetic acid+Thidiazuron+Paclobutrazol (BAP+NAA+TDZ+PBZ).
It was discovered that an increase in the amount of 6 micro-elements restored growth to shoots and prevented shoot death and, in particular, an increase in the amount of CuSO4.7H2O added to the media increased multiplication rates increased up to about 7× every 3 weeks. MS media contains 0.025 mg/L CuSO4.7H2O. An increase of up to about 10× every 3 weeks in multiplication rate was achieved when shoots were broken apart every 2-3 weeks. […]

Assay [3] relates to switchgrass shoots. Particulars: 8 weeks (12 weeks to plant), 29° C., BAP as only plant hormone; cited from earlier work.

On to `O=C(Nc1ccccc1)Nc1cnns1` [TDZ, Thidiazuron], for which the “shoot thickness and shoot production” value in assay [1] was “multiplied shoots were thinner and shoot production was less”.

As to `O.O.O.O.O.O.O.O=S(=O)([O-])[O-].[Cu+2]` [CuSO4.7H2O], the shoot multiplication rate result is “about 10 × every 3 weeks” in assay [2] (increased CuSO4.7H2O, shoots broken apart every 2-3 weeks) and “about 7 × every 3 weeks” in assay [2] (increased amount of CuSO4.7H2O added to the media (MS media contains 0.025 mg/L)).

As for `c1ccc(CNc2ncnc3[nH]cnc23)cc1` [BAP, Benzylaminopurine], the “shoots multiplied from one plant” value in assay [3] is listed as “up to 500 shoots”.
